Experimental data: patent US9192568B2, “Formulations comprising jorumycin-, renieramycin-, safracin- or saframycin-related compounds for treating proliferative diseases” (Pharma Mar, S.A., priority 2005, dated 2015)

Key:
Aqueous solubility = type: physicochemical
From the text: These characteristics challenge the ordinary skills and conventional methodologies in this technology, particularly when it comes to the preparation of formulations of these compounds that are to be readily used for medical purposes. Such uses preferably rely on formulations whose characteristics include one or more of the following: biocompatibility, stability under ambient conditions, or under conditions that are as near to ambient conditions as possible, with a shelf life that is as long as possible, and easy reconstitutability to form reconstituted solutions that are as stable under ambient, or near ambient conditions, for as long as possible.

[1] = system: solid and non-solid tumor cell lines; conditions: cited from earlier work
[2] = system: xenografted human cell lines in mice, such as breast and prostate; conditions: several xenografted human cell lines in mice; cited from earlier work

Structure (SMILES)	aqueous solubility (Aqueous solubility)	in vitro activity [1]	in vivo activity [2]
COc1c(C)cc2c(c1O)[C@@H]1[C@@H]3Cc4c(OC(C)=O)c(C)c5c(c4[C@H](CNC(=O)/C=C/c4cccc(C(F)(F)F)c4)N3[C@@H](O)[C@H](C2)N1C)OCO5 [PM00104]	limited aqueous solubility	significant in vitro activity	significant in vivo activity
COc1c(C)cc2c(c1O)[C@@H]1[C@@H]3Cc4c(OC(C)=O)c(C)c5c(c4[C@H](COC(=O)/C=C/c4ccccc4)N3[C@@H](O)[C@H](C2)N1C)OCO5 [PM00121]	limited aqueous solubility		
